Data set [1] deals with bleomycin-induced lung fibrosis. Briefly: Bleomycin induced IPF mouse model, Example 1 (oral nintedanib or fluconazole). It counts as in vivo, C57BL/6 mice. The following applies: nintedanib 60 mg/kg. How it is done:
Forty male C57BL/6 mice (Nanjing Biomedical Research Institute of Nanjing University) were randomly divided into two groups on Day 1, 10 animals for one group (referred to as Control group or Group 1) and 30 for the other. The animals in the Control group were administered intratracheally with PBS at a dose of 2 mL/kg while the others were administered intratracheally with bleomycin (Cat #HY-17565, MCE) at a dose of 0.66 mg/kg.
(§1) On Day 5, the mice with bleomycin treatment were divided into three groups at random (referred to as Group 2-4, n=10), and orally administered with vehicle (0.5% Methyl cellulose), nintedanib (Kangmanlin Co. Ltd., prepared in 0.5% Methyl cellulose with a final concentration of 6.0 mg/mL) and fluconazole (Kangmanlin Co. Ltd., prepared in 0.5% Methyl cellulose with a final concentration of 7.0 mg/mL) at daily doses of 10 mL/kg, 60 mg/kg and 70 mg/kg, respectively. The mice in the Control group was administered with vehicle (0.5% Methyl cellulose) at a daily dose of 10 mL/kg. Mice body weights were measured and recorded on Day 1, 5, 12, 19 and 25.
(§2) Two hours post drug administration on Day 25, all animals were anaesthetized with pentobarbital (i.p., 65 mg/kg). Blood samples were collected from orbital vein, put in tubes pre-coated with EDTA-K2 (KANG JIAN, Cat #KJ202), centrifuged at 4000×g for 10 minutes at 4° C. and then stored at −80° C. for determination of plasma drug levels. Then, the trachea was exposed, and bronchoalveolar lavage fluid (BALF) was collected from each mouse by injecting 0.3 mL of saline into trachea close to the larynx for three times. After BALF collection, mice were perfused with saline, and all four lung lobes were collected from each mouse, fixed in 10% NBF solution, embedded in paraffin and cut into 5 μm-thick sections. The sections were de-paraffinized with xylene and ethanol and subject to Haematoxylin-Eosin, Masson Trichrome and α-SMA IHC staining.
The bronchoalveolar lavage fluid of 20 μL was mixed with 20 μL of trypan blue to determine the cell number. Then, the cells in the BALF were concentrated using a Cytospinat at 1,000 rpm for 5 minutes, smeared on slides and then stained with Diff-Quik stain. Cell types (alveolar macrophages, neutrophils, or lymphocytes) were determined by counting at least 200 cells using a standard hemocytometer. The rest BALFs were centrifuged and supernatants were collected and stored at −80° C. for soluble collagen analysis.
The Haematoxylin-Eosin staining was used to identify and quantitate the inflammatory cells in the tissues, and the total inflammation area was calculated using the AperioScanScope software.
The sections with Masson Trichrome staining were scored for pulmonary fibrosis according to the modified Ashcroft fibrosis rating criteria in Table 1 below. Each lung lobe was divided into 4 parts according to the distance from the main bronchus, i.e., the upper, upper middle, lower middle and lower parts, which were scored separately and averaged later.
α-SMA is a well characterized marker in fibrosis. Immunohistochemistry staining of α-SMA is often used to characterize and quantitate the tissue fibrosis. Increased staining of α-SMA often reflects accumulation of collagen-producing myofibroblasts. Before α-SMA IHC staining, the de-paraffinized sections were treated with citrate antigen retrieval solution (0.01 N citrate buffer, pH 6.0) at 100° C. for 10 minutes, and then incubated with rabbit polyclonal anti-α-SMA (1:400, ab5694, Abcam) for 1 hour followed by goat anti-rabbit HRP (K4003, Dako). DAB substrate kit (DAB0031, Maixin, Shanghai) was used for chromogenic staining. All sections were further counter-stained with hematoxylin. […] α-SMA staining areas were calculated using the AperioImageScope program.
Statistical analysis was performed using student's T-test, one-way or two-way ANOVA followed by post-hoc Dunnett's test if significant. […] The difference was considered significant when p<0.05. *p<0.05, **p<0.01, ***[…].

On the set-up of data set [2]: species or system C57BL/6 mice. To be noted: C57BL/6, mouse, in vivo, 2 h. As to the method:
as §1
as §2, with “The sections were de-paraffinized with xylene and ethanol and subject to Haematoxylin-Eosin, Masson Trichrome and α-SMA IHC staining.” left out

Data set [3] concerns sol elastase activity of CF sputum. The following applies: unprocessed CF sputum directly treated; cited from earlier work.
Data set [4] can be described thus: Plasma drug levels, Example 2. The data set is classed as in vivo, C57BL/6 mice. The following applies: C57BL/6, mouse. How it is done: On Day 5, the mice with bleomycin treatment were divided into four groups at random (referred to as Group 2-5, n=10), and orally administered with vehicle (DMSO: PEG400=1:9, V/V), itraconazole (Kangmanlin Co. Ltd. prepared in DMSO/PEG400 with a final concentration of 1.5 mg/mL), nintedanib (Kangmanlin Co. Ltd., prepared in DMSO/PEG400 with a final concentration of 6.0 mg/mL), and itraconazole+nintedanib (prepared in DMSO/PEG400 with final concentrations of 1.5 mg/mL and 6.0 mg/mL) at daily doses of 10 mL/kg, 15 mg/kg, 60 mg/kg and 15+60 mg/kg, respectively. The mice in the Control group was administered with vehicle (DMSO/PEG400) at a daily dose of 10 mL/kg. Mice body weights were measured and recorded on Day 1, 5, 12, 19 and 21.
Two hours post drug administration on Day 21, all animals were anaesthetized with pentobarbital (i.p., 60 mg/kg). Blood sample, bronchoalveolar lavage fluid (BALF) and lung lobes were collected from each mouse and then processed following the protocols in Example 1.

Data set [5] can be described thus: Drug concentrations in plasma and lung tissues after 5 days of oral or inhalation dosing. The data set is classed as in vivo, healthy male mice. To be noted: male, mouse; for Kp at 2 h: lung tissue and plasma, read-out: levels in lung tissues relative to plasma; for concentration at 2 h: q.d., 5 days, two hours after last dose. As to the method: In a separate experiment, three groups of healthy male mice were treated with itraconazole for 5 consecutive days. Animals in Group A were orally administered with itraconazole in DMSO:PEG400 (1:9, v/v) at a daily dose of 15 mg/kg, while mice in Group B and C were subject to 3-min inhalation treatment of itraconazole of 15 mg/mL and 50 mg/mL, respectively. Two hours after the last dose, plasma samples and lung tissues were collected as described above. These samples were sent to an independent bioanalytical service lab to determine the levels of itraconazole, and results were summarized in Table 3.

The nature of data set [6]: Plasma exposure levels in the bleomycin-induced lung fibrosis mouse study. It counts as in vivo. The source says: Because the relevancy to human efficacy in bleomycin-induced lung fibrosis mouse model, though well established in preclinical studies (Moeller, 2008), has not been established, a new version of the bleomycin-induced lung fibrosis mouse study protocol was designed, with marketed anti-fibrotic drugs, namely pirfenidone and nintedanib, as positive controls.

For data set [7] the following is noted: cited from earlier work.
For data set [8] the following is noted: cited from earlier work. This is another data set of the same source.
The conditions of data set [9]: mice, cited from earlier work.

Usually solubility stands for how much of the substance goes into solution per volume. In general, Cmax refers to the peak of the concentration-time curve.

“Also recorded” adds a separate entry of the source. Read-outs that look alike come from different tables or passages of the source.

For the molecule `OC(Cn1cncn1)(Cn1cncn1)c1ccc(F)cc1F` [fluconazole], in [1] (Haematoxylin-Eosin staining, fluconazole 70 mg/kg p.o. daily), the “reduction of lung inflammation area” value was “not observed”. Besides, the “reduction of modified Ashcroft score” value in [1] (Masson Trichrome staining, fluconazole 70 mg/kg p.o. daily) is listed as “not observed”. For the same molecule, the “anti-IPF activities / fibrosis related endpoint measurements (overall)” value in [1] (fluconazole 70 mg/kg daily dose) is listed as “did not show detectable changes; also recorded: failed to show any significant anti-IPF activities”. For the same molecule, the BALF collagen levels result in [1] (oral daily Day 5-25, fluconazole 70 mg/kg, vs bleomycin + vehicle) is “No collagen level reduction”. Moreover, the “reduction of α-SMA staining area” value in [1] (α-SMA IHC, fluconazole 70 mg/kg p.o. daily) is given as “not observed”. Besides, the “plasma level relative to that of itraconazole at 15 mg/kg” value in [2] is “over 62 fold”.
As to DNase, the “increase of sol elastase activity” value in data set [3] is 190%.
In the case of `CCC(C)n1ncn(-c2ccc(N3CCN(c4ccc(OCC5COC(Cn6cncn6)(c6ccc(Cl)cc6Cl)O5)cc4)CC3)cc2)c1=O` (centres unmarked) [itraconazole], the concentration at 2 h in data set [4] (oral, Day 21, itraconazole 15 mg/kg, nintedanib 60 mg/kg p.o. daily, read-out: two-hour post dosing plasma level, single agent) came out at 700 ng/mL; in data set [4] (po, Day 21, 15+60 mg/kg p.o. daily, read-out: two-hour post dosing plasma drug level, itraconazole and nintedanib combined in administration), 518 ng/mL; in data set [5] (lung tissue, inhaled, Group B: i.h., 15 mg/mL for 3 min, read-out: Lung Tissue Concentrations), 590 ng/mL; in data set [5] (lung tissue, inhaled, Group C: i.h., 50 mg/mL for 3 min, read-out: Lung Tissue Concentrations), 1400 ng/mL; in data set [5] (lung tissue, po, Group A: p.o., 15 mg/kg, read-out: Lung Tissue Concentrations), 172 ng/mL; in data set [5] (plasma, inhaled, Group B: i.h., 15 mg/mL for 3 min, read-out: Plasma Concentrations), 80.9 ng/mL. Further, the concentration at 2 h is 168 ng/mL in data set [5] (plasma, inhaled, Group C: i.h., 50 mg/mL for 3 min, read-out: Plasma Concentrations) and 133 ng/mL in data set [5] (plasma, po, Group A: p.o., 15 mg/kg, read-out: Plasma Concentrations). Further, the Kp at 2 h in data set [5] (inhaled, 5 days of inhalation at 15 mg/mL for 3 min) is around 7.3; in data set [5] (inhaled, inhalation dose of 50 mg/mL for 3 min), 8.3; in [5] (5 days of oral dosing at 15 mg/kg), around 1.3. The results for the plasma exposure level in data set [6] (itraconazole alone at 7.5 mg/kg) and in [6] (itraconazole alone at 15 mg/kg) were 394 ± 66 ng/mL and 899 ± 192 ng/mL, respectively. Further, the solubility in data set [7] (in 0.1N HCl) was 4 to 6 µg/mL; in data set [7] (in water), 0.001 to 0.004 µg/mL. In addition, the “Cmax at steady state” value in data set [8] (200 mg (PO/BID)) is given as 2000 ng/mL; in data set [8] (200 mg (PO/QD)), 1100 ng/mL. Also, the “time to steady state plasma levels” value in [8] (post oral administration, multiple dosing) is reported as “around 15 days”. For the same molecule, the “time at which peak plasma levels are reached” value in data set [8] (post oral dose) is 2 to 5 h. Moreover, the “serum levels relative to pulmonary concentrations” value in [9] (aerosolized dose) is given as 25 to 50 times lower. Moreover, the “time to effective anti-fungal pulmonary concentrations” value in [9] (after completion of nebulization) is reported as at most 60 min.

B1: reduced rhTrx: stable reduced form of recombinant human thioredoxin (protein, UniProt P10599 2-105, looked up)
Thioredoxin: VKQIESKTAFQEALDAAGDKLVVVDFSATWCGPCKMIKPFFHSLSEKYSNVIFLEVDVDDCQDVASECEVKCMPTFQFFKKGQKVGEFSGANKEKLEATINELV
modifications: reduced form
With B1, the “increase of sol elastase activity” value in [3] is recorded as 60%.

The values above are taken from patent publication US12569482B2, “Methods and compositions for treating idiopathic pulmonary fibrosis” (priority 2018, dated 2026).
